Test systems include HCC 2998; OVCAR-4; LOX IMVI; T47D; HOP-92; OVCAR-8; IGROV-1; MDA-MB-231; CAKI-1; TK-10; MDA-N; 786-0; KM12; ACHN; SF-295; HCT-116; UACC-62; M14; HT-29; NCI-H460.
Common to all, as to assay: NCI anticancer screen, dose series, 48 h

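Each compound was tested at five concentrations against cells in 96-well plates for 48 hours. The concentration for 50% growth inhibition is given as GI50.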 Calls of active or inactive are those of the source. No stated cut-off is given here; in the data, active = GI50 up to about 1.1 µM and inactive = higher.

Regarding `COc1ccc(NCc2cccc3c(=O)c4ccc(Cl)cc4oc23)cc1`, the GI50 with HCC 2998 was > 100 µM (inactive); in the assay with OVCAR-4, > 100 µM (inactive); in the assay with LOX IMVI, > 100 µM (inactive); in the assay on T47D, > 100 µM (inactive); in the assay on HOP-92 it was 2.5 µM (inactive); with OVCAR-8, > 100 µM (inactive). For the same compound, the GI50 in the assay on IGROV-1, in the assay on MDA-MB-231, in the assay with CAKI-1, in the assay on TK-10, with MDA-N and with 786-0 was > 100 µM (inactive) each time. Further, the GI50 in the assay on KM12, in the assay on ACHN, with SF-295, with HCT-116, in the assay on UACC-62 and in the assay with M14 was > 100 µM (inactive) in each case.

For `O=C1OC(C2Cc3ccc4c(c3C2=O)CCCC4)c2ccccc21` (configuration not stated), the GI50 with HCC 2998 is 30.8 µM (inactive); in the assay with OVCAR-4, 24.8 µM (inactive); in the assay with LOX IMVI it was 25.5 µM (inactive); in the assay on T47D it was 63 µM (inactive); in the assay with OVCAR-8, 43.9 µM (inactive); in the assay on IGROV-1 it was 44.3 µM (inactive). Further, the GI50 with MDA-MB-231 was 36.2 µM (inactive); in the assay with CAKI-1 it was 69.3 µM (inactive); in the assay with TK-10 it was 73.5 µM (inactive); in the assay on HT-29, 36.6 µM (inactive); with MDA-N, 34.8 µM (inactive); in the assay on 786-0, 50.8 µM (inactive). Besides, the GI50 in the assay on KM12 was 44 µM (inactive); in the assay with ACHN, 44.6 µM (inactive); with SF-295, 40.1 µM (inactive); in the assay with HCT-116 it was 40 µM (inactive); in the assay on NCI-H460, 27.3 µM (inactive); with UACC-62, 23.7 µM (inactive). Besides, the GI50 in the assay on M14 is 50.4 µM (inactive).

Take `COC(=O)c1ccc(/C=N/c2ccc(S(N)(=O)=O)cc2)cc1`: the GI50 is > 100 µM (inactive) in the assay with HCC 2998; 97.9 µM (inactive) with OVCAR-4; 33.5 µM (inactive) in the assay on LOX IMVI; > 100 µM (inactive) in the assay with T47D; 65.5 µM (inactive) with HOP-92; 89.1 µM (inactive) in the assay on OVCAR-8. Moreover, the GI50 was > 100 µM (inactive) in the assay with MDA-MB-231; > 100 µM (inactive) in the assay with CAKI-1; > 100 µM (inactive) with TK-10; > 100 µM (inactive) in the assay with HT-29; 59.7 µM (inactive) with MDA-N; 57.1 µM (inactive) with 786-0. For the same compound, the GI50 in the assay on KM12 is > 100 µM (inactive); with ACHN it was 84.3 µM (inactive); in the assay on SF-295, > 100 µM (inactive); in the assay on HCT-116 it was 37.1 µM (inactive); with NCI-H460, > 100 µM (inactive); with UACC-62 it was 60.3 µM (inactive). In addition, the GI50 in the assay with M14 was 53.5 µM (inactive).

With `O=C(C/C(=N/O)C(=O)NC1=C(Cl)C(=O)c2ccccc2C1=O)CC(c1ccccc1)c1c(O)c2ccccc2oc1=O` (configuration not stated), the GI50 with HCC 2998 was 11.9 µM (inactive); with OVCAR-4, 10 µM (inactive); in the assay on LOX IMVI it was 3.39 µM (inactive); in the assay on T47D, 12.1 µM (inactive); with HOP-92 it was 22.3 µM (inactive); with OVCAR-8, 10.8 µM (inactive). Besides, the GI50 with IGROV-1 is 4.52 µM (inactive); with MDA-MB-231 it was 4.57 µM (inactive); with CAKI-1, 17.3 µM (inactive); in the assay with HT-29, 4.84 µM (inactive); with MDA-N, 1.72 µM (inactive); with 786-0 it was 10.4 µM (inactive). Besides, the GI50 was 3.5 µM (inactive) in the assay on KM12; 19.8 µM (inactive) in the assay on ACHN; 7.93 µM (inactive) with SF-295; 4.51 µM (inactive) in the assay with HCT-116; 3.15 µM (inactive) in the assay on NCI-H460; 3.14 µM (inactive) in the assay with UACC-62. In the assay on M14, the GI50 was 4.59 µM (inactive).

In the case of `C=CCN1C(=O)CS/C1=N\NC(=O)CSc1nc2ccccc2c(=O)n1CC`, the GI50 in the assay on HCC 2998, with OVCAR-4, in the assay on LOX IMVI, with T47D, in the assay with OVCAR-8 and in the assay with IGROV-1 was > 100 µM (inactive) throughout. In addition, the GI50 in the assay on MDA-MB-231 is > 100 µM (inactive); in the assay on CAKI-1, 75.2 µM (inactive); in the assay on TK-10 it was > 100 µM (inactive); in the assay on HT-29 it was > 100 µM (inactive); in the assay on MDA-N, > 100 µM (inactive); in the assay with 786-0, > 100 µM (inactive). In addition, the GI50 in the assay with KM12 was > 100 µM (inactive); in the assay on ACHN it was > 100 µM (inactive); in the assay with SF-295, > 100 µM (inactive); with HCT-116, > 100 µM (inactive); with NCI-H460 it was 5.37 µM (inactive); in the assay on UACC-62 it was 92 µM (inactive). For the same compound, the GI50 in the assay with M14 is > 100 µM (inactive).

With `Oc1cnc2c(O)cccc2c1` [JINEOL], the GI50 in the assay on HCC 2998 is 43.4 µM (inactive); with LOX IMVI, 26.2 µM (inactive); in the assay with T47D, 29 µM (inactive); in the assay on HOP-92 it was 41 µM (inactive); in the assay on OVCAR-8 it was 26.2 µM (inactive); with IGROV-1, 20.3 µM (inactive). In addition, the GI50 in the assay on MDA-MB-231 is 52 µM (inactive); in the assay with TK-10, 53.1 µM (inactive); in the assay with HT-29 it was 32.7 µM (inactive); in the assay on MDA-N, 57.1 µM (inactive); in the assay on 786-0 it was 35.5 µM (inactive); with KM12, 12.8 µM (inactive). Besides, the GI50 was 27.5 µM (inactive) with ACHN; 36.8 µM (inactive) with SF-295; 40.8 µM (inactive) in the assay on HCT-116; 31.9 µM (inactive) in the assay on NCI-H460; 32.7 µM (inactive) with UACC-62; 24.5 µM (inactive) with M14.

Consider `CC1CN=C(N(C)C(=O)Nc2ccc(Cl)c(Cl)c2)S1` (configuration not stated), for which the GI50 in the assay with HCC 2998 was 38.6 µM (inactive); with OVCAR-4, 36.6 µM (inactive); with LOX IMVI it was 17.5 µM (inactive); in the assay with T47D, 19.3 µM (inactive); in the assay with HOP-92, 4.76 µM (inactive); with OVCAR-8 it was 27.2 µM (inactive). Besides, the GI50 was 27.2 µM (inactive) in the assay on IGROV-1; 28.1 µM (inactive) with MDA-MB-231; 7.53 µM (inactive) in the assay with CAKI-1; 26.8 µM (inactive) in the assay on TK-10; 33 µM (inactive) in the assay on HT-29; 31 µM (inactive) in the assay on MDA-N. Besides, the GI50 with 786-0 is 35.6 µM (inactive); in the assay on KM12, 32.4 µM (inactive); in the assay with ACHN it was 11 µM (inactive); with SF-295, 30.9 µM (inactive); in the assay with HCT-116, 39 µM (inactive); with NCI-H460, 36 µM (inactive). Besides, in the assay with M14, the GI50 was 0.127 µM (active).

For `CCOC(=O)C1=CNC2=N[C@H]3CCCC[C@@H]3N2C1=O`, the GI50 with HCC 2998, with OVCAR-4, with LOX IMVI, in the assay on T47D, with HOP-92 and in the assay on OVCAR-8 was > 100 µM (inactive) each time. Moreover, the GI50 in the assay on IGROV-1, in the assay on MDA-MB-231, with CAKI-1, in the assay with HT-29, in the assay with MDA-N and with 786-0 was > 100 µM (inactive) throughout. Besides, the GI50 in the assay on KM12, in the assay with ACHN, in the assay on SF-295, in the assay with HCT-116, with NCI-H460 and in the assay on UACC-62 was > 100 µM (inactive) in each case. In addition, in the assay with M14, the GI50 is > 100 µM (inactive).

On to `CCN(CC)CCOCC1CCCN2CCCCC12` (configuration not stated), for which the GI50 in the assay on HCC 2998, in the assay with OVCAR-4, with LOX IMVI, in the assay on T47D, in the assay with HOP-92 and in the assay on OVCAR-8 was > 100 µM (inactive) throughout. Further, the GI50 in the assay with MDA-MB-231, with CAKI-1, in the assay on TK-10, in the assay on HT-29, in the assay with MDA-N and with 786-0 was > 100 µM (inactive) throughout. Also, the GI50 in the assay on KM12, in the assay on ACHN, in the assay on SF-295, in the assay with HCT-116, in the assay with NCI-H460 and with UACC-62 was > 100 µM (inactive) throughout. Moreover, the GI50 in the assay with M14 is > 100 µM (inactive).

Consider `Cc1ccc(CC(=O)Nc2ccc(NC(=O)CNC(=O)/C=C/c3ccc(-c4ccccc4)cc3)cc2C(=O)c2ccccc2)cc1`, for which the GI50 was 1.67 µM (inactive) in the assay on HCC 2998; 3.69 µM (inactive) with LOX IMVI; 1.76 µM (inactive) with T47D; 4.17 µM (inactive) in the assay with HOP-92; 1.59 µM (inactive) in the assay on OVCAR-8; 8.24 µM (inactive) in the assay on IGROV-1. The GI50 in the assay on MDA-MB-231 was 2.62 µM (inactive); in the assay on CAKI-1, 4.9 µM (inactive); with TK-10 it was 2.08 µM (inactive); in the assay on HT-29 it was 1.58 µM (inactive); in the assay with MDA-N, 4.74 µM (inactive); with 786-0, 2.28 µM (inactive). The GI50 was 3.56 µM (inactive) in the assay on KM12; 4.8 µM (inactive) in the assay with ACHN; 2.22 µM (inactive) with SF-295; 1.36 µM (inactive) with HCT-116; 2.86 µM (inactive) with NCI-H460; 13.1 µM (inactive) in the assay with UACC-62. The GI50 with M14 was 4.81 µM (inactive).

As to `O=c1cc(-c2ccccc2)[nH]c2ccc(N3CCCC3)cc12`, the GI50 is 0.172 µM (active) in the assay on HCC 2998; < 0.0137 µM (active) with LOX IMVI; > 100 µM (inactive) in the assay with T47D; 0.037 µM (active) with HOP-92; 0.0365 µM (active) with OVCAR-8; 0.267 µM (active) in the assay on IGROV-1. Also, the GI50 is 0.103 µM (active) in the assay with MDA-MB-231; < 0.0175 µM (active) with CAKI-1; 5.62 µM (inactive) in the assay on TK-10; 0.0146 µM (active) with HT-29; < 0.01 µM (active) in the assay on MDA-N; < 0.0114 µM (active) in the assay on 786-0. Further, the GI50 in the assay on KM12 is 0.039 µM (active); with ACHN it was 0.0222 µM (active); in the assay on SF-295 it was < 0.01 µM (active); with HCT-116 it was < 0.0113 µM (active); with NCI-H460, 0.0275 µM (active); in the assay with UACC-62, < 0.01 µM (active). Besides, the GI50 in the assay on M14 is < 0.0123 µM (active).

For the origin of these results see ChEMBL document CHEMBL1201862, “PubChem BioAssay data set” (2004).
